Reference: patent US12391648B2, “Pyridyloxy thioester derivative and preparation method therefor, herbicidal composition, and application” (Qingdao Kingagroot Chemical Compound Co., Ltd., priority 2018, dated 2025)

Assays:
Type in all cases: in vivo
[1] = system: Abutilon theophrasti; assay: Post-emergence test experiment (Table 3, 1000 g/ha); conditions: post-emergence spray, after 3 weeks, fresh weight inhibition
Method in brief: (§1)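 Activity graded levels 0-5 by fresh-weight inhibition (level 5 above 85%, level 0 below 5%), assessed 3 weeks after treatment. Plants grown in greenhouse pots were sprayed post-emergence at 2-3 leaves using acetone/tween-80 solutions with methyl oleate synergist (1.5 L/ha).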

[2] = system: Setaria viridis; assay: as above; conditions: post-emergence spray, after 3 weeks, fresh weight inhibition
Method in brief: as §1

[3] = system: Monochoria vaginalis; assay: as above; conditions: post-emergence spray, after 3 weeks, fresh weight inhibition
Method in brief: as §1

[4] = system: Digitaria sanguinalis; assay: as above; conditions: post-emergence spray, after 3 weeks, fresh weight inhibition
Method in brief: as §1

[5] = system: Galium spurium; assay: as above; conditions: post-emergence spray, after 3 weeks, fresh weight inhibition
Method in brief: as §1

[6] = system: Leptochloa chinensis; assay: as above; conditions: post-emergence spray, after 3 weeks, fresh weight inhibition
Method in brief: as §1

[7] = system: rice (japonica rice); assay: Transplanted rice safety evaluation; conditions: 1000 g/ha, transplanted 3-leaf stage japonica rice, treated 5 days after transplantation, 21 days after treatment
Source text: (§2) The activity level standard of harmful plants destruction (i. e. growth inhibition rate) is as follows: • Level 5: the growth inhibition rate is greater than 85%; • Level 4: the growth inhibition rate is equal to or greater than 60% and less than 85%; • Level 3: the growth inhibition rate is equal to or greater than 40% and less than 60%; • Level 2: the growth inhibition rate is equal to or greater than 20% and less than 40%; • Level 1: the growth inhibition rate is equal to or greater than 5% and less than 20%; • Level 0: the growth inhibition rate is less than 5%;
(§3) Transplanted rice safety evaluation and weed control effect evaluation in rice field:
In addition, the rice field soil that loaded into the 1/1,000,000 ha pot was leveled to keep water storage at 3-4 cm depth. The 3-leaf stage rice (japonica rice) was transplanted at 3 cm of transplanting depth the next day. The compound of the present invention was treated by the same way after 5 days of transplantation.
(§4) The fertility condition of Monochoria vaginalis 14 days and rice 21 days after the treatment of the compound of the invention with the naked eye.

[8] = system: ALS resistant Echinochloa crusgalli; assay: Post-emergence test experiment (Table 4), weed control; conditions: 600 g/ha active ingredient, plus water 450 kg/ha, after 3 weeks
Source text: as §2
(§5) The above described growth inhibition rate is fresh weight inhibition rate.
(§6) Post-emergence test experiment: Monocotyledonous and dicotyledonous weed seeds and main crop seeds (i. e. wheat, corn, rice, soybean, cotton, oilseed, millet and sorghum.) were put into a plastic pot loaded with soil. Then covered with 0.5-2 cm soil, the seeds were allowed to grow in good greenhouse environment. The test plants were treated at 2-3 leaf stage 2 weeks after sowing. The test compounds of the invention were dissolved with acetone respectively, then added with tween-80, and using 1.5 liters per hectare of an emulsible concentrate of methyl oleate as a synergist, and diluted by certain amount of water to certain concentration. The solution was sprayed to the plants with a sprayer. Then the plants were cultured for 3 weeks in the greenhouse, and the experiment result of weed controlling effect after 3 weeks was listed in tables 3-4.
(§7) […] Echinochloa crusgalli and Cyperus iria were collected from Ningxia Hui Autonomous Region of China, which had evolved resistance to ALS inhibiting herbicides. • Control compound A:

[9] = system: ALS resistant Cyperus iria; assay: as above; conditions: 600 g/ha active ingredient, plus water 450 kg/ha, after 3 weeks
Source text: as §2, §5, §6, §7

[10] = system: Monochoria vaginalis; assay: Weed control effect evaluation in rice field; conditions: 1000 g/ha, paddy water application at 0.5 leaf stage, 14 days after treatment, weeds resistant to pyrazosulfuron-ethyl and penoxsulam
Source text: as §2, §3
Rice field soil was loaded into a 1/1,000,000 ha pot. The seeds of Monochoria vaginalis were sowed and gently covered with soil, then left to stand still in greenhouse in the state of 0.5-1 cm of water storage. It was kept at 3-4 cm of water storage thereafter. The weeds were treated by dripping the WP or SC water diluents prepared according to the common preparation method of the compounds of the present invention with pipette homogeneously to achieve specified effective amount when Monochoria vaginalis reached 0. 5 leaf stage.
as §4
Note: The seeds of Monochoria vaginalis were collected from Heilongjing Province of China.

[11] = system: Japonica rice; assay: Post-emergence test experiment (Table 4), crop safety; conditions: 600 g/ha active ingredient, plus water 450 kg/ha, after 3 weeks
Source text: as §2, §5, §6, §7

[12] = system: Indica rice; assay: as above; conditions: 600 g/ha active ingredient, plus water 450 kg/ha, after 3 weeks
Source text: as §2, §5, §6, §7

Compound	Activity level (growth inhibition rate) Abutilon theophrasti [1]	Activity level (growth inhibition rate) Setaria viridis [2]	Activity level (growth inhibition rate) Monochoria Vaginalis [3]	Activity level (growth inhibition rate) Digitaria sanguinalis [4]	Activity level (growth inhibition rate) Galium spurium [5]	Activity level (growth inhibition rate) Leptochloa chinensis [6]	Rice, activity standard level 0-5 (safety) [7]	ALS resistant Echinochloa crusgalli, activity level (growth inhibition rate) [8]	ALS resistant Cyperus iria, activity level (growth inhibition rate) [9]	Monochoria Vaginalis, activity standard level 0-5 [10]	Japonica rice, activity level (growth inhibition rate) [11]	Indica rice, activity level (growth inhibition rate) [12]
CCCCC(CC)CSC(=O)C(C)Oc1nc(F)c(Cl)c(N)c1Cl (stereo not drawn) [Compound 74]	5 (Level 5: the growth inhibition rate is greater than 85%)	5 (Level 5: the growth inhibition rate is greater than 85%)	5 (Level 5: the growth inhibition rate is greater than 85%)	5 (Level 5: the growth inhibition rate is greater than 85%)	5 (Level 5: the growth inhibition rate is greater than 85%)	5 (Level 5: the growth inhibition rate is greater than 85%)	0 (Level 0: the growth inhibition rate is less than 5%)	5 (Level 5: the growth inhibition rate is greater than 85%)	5 (Level 5: the growth inhibition rate is greater than 85%)	5 (Level 5: the growth inhibition rate is greater than 85%)	0 (Level 0: the growth inhibition rate is less than 5%)	0 (Level 0: the growth inhibition rate is less than 5%)
CSC(=O)C(C)Oc1nc(F)c(Cl)c(NCc2ccco2)c1Cl (stereo not drawn) [Compound 130]	5 (Level 5: the growth inhibition rate is greater than 85%)	5 (Level 5: the growth inhibition rate is greater than 85%)	5 (Level 5: the growth inhibition rate is greater than 85%)	5 (Level 5: the growth inhibition rate is greater than 85%)	5 (Level 5: the growth inhibition rate is greater than 85%)	5 (Level 5: the growth inhibition rate is greater than 85%)	0 (Level 0: the growth inhibition rate is less than 5%)	5 (Level 5: the growth inhibition rate is greater than 85%)	5 (Level 5: the growth inhibition rate is greater than 85%)	5 (Level 5: the growth inhibition rate is greater than 85%)	0 (Level 0: the growth inhibition rate is less than 5%)	0 (Level 0: the growth inhibition rate is less than 5%)
CC(Cl)CCSC(=O)C(C)Oc1nc(F)c(Cl)c(N)c1Cl (stereo not drawn) [Compound 77]	5 (Level 5: the growth inhibition rate is greater than 85%)	5 (Level 5: the growth inhibition rate is greater than 85%)	5 (Level 5: the growth inhibition rate is greater than 85%)	5 (Level 5: the growth inhibition rate is greater than 85%)	5 (Level 5: the growth inhibition rate is greater than 85%)	5 (Level 5: the growth inhibition rate is greater than 85%)	0 (Level 0: the growth inhibition rate is less than 5%)	5 (Level 5: the growth inhibition rate is greater than 85%)	5 (Level 5: the growth inhibition rate is greater than 85%)	5 (Level 5: the growth inhibition rate is greater than 85%)	0 (Level 0: the growth inhibition rate is less than 5%)	0 (Level 0: the growth inhibition rate is less than 5%)
CC(Oc1nc(F)c(Cl)c(N)c1Cl)C(=O)SCCCC(F)(F)F (stereo not drawn) [Compound 79]	5 (Level 5: the growth inhibition rate is greater than 85%)	5 (Level 5: the growth inhibition rate is greater than 85%)	5 (Level 5: the growth inhibition rate is greater than 85%)	5 (Level 5: the growth inhibition rate is greater than 85%)	5 (Level 5: the growth inhibition rate is greater than 85%)	5 (Level 5: the growth inhibition rate is greater than 85%)	0 (Level 0: the growth inhibition rate is less than 5%)	5 (Level 5: the growth inhibition rate is greater than 85%)	5 (Level 5: the growth inhibition rate is greater than 85%)	5 (Level 5: the growth inhibition rate is greater than 85%)	0 (Level 0: the growth inhibition rate is less than 5%)	0 (Level 0: the growth inhibition rate is less than 5%)
CSC(=O)C(C)Oc1ncc(Cl)c(N)c1Cl (stereo not drawn) [Compound 3]	5 (Level 5: the growth inhibition rate is greater than 85%)	5 (Level 5: the growth inhibition rate is greater than 85%)	5 (Level 5: the growth inhibition rate is greater than 85%)	5 (Level 5: the growth inhibition rate is greater than 85%)	5 (Level 5: the growth inhibition rate is greater than 85%)	5 (Level 5: the growth inhibition rate is greater than 85%)	0 (Level 0: the growth inhibition rate is less than 5%)	5 (Level 5: the growth inhibition rate is greater than 85%)	5 (Level 5: the growth inhibition rate is greater than 85%)	5 (Level 5: the growth inhibition rate is greater than 85%)	0 (Level 0: the growth inhibition rate is less than 5%)	0 (Level 0: the growth inhibition rate is less than 5%)
CC(Oc1nc(F)c(Cl)c(N)c1Cl)C(=O)SC1CCCCC1 (stereo not drawn) [Compound 82]	5 (Level 5: the growth inhibition rate is greater than 85%)	5 (Level 5: the growth inhibition rate is greater than 85%)	5 (Level 5: the growth inhibition rate is greater than 85%)	5 (Level 5: the growth inhibition rate is greater than 85%)	5 (Level 5: the growth inhibition rate is greater than 85%)	5 (Level 5: the growth inhibition rate is greater than 85%)	0 (Level 0: the growth inhibition rate is less than 5%)	5 (Level 5: the growth inhibition rate is greater than 85%)	5 (Level 5: the growth inhibition rate is greater than 85%)	5 (Level 5: the growth inhibition rate is greater than 85%)	0 (Level 0: the growth inhibition rate is less than 5%)	0 (Level 0: the growth inhibition rate is less than 5%)
